SMILES strings stand for the structures. pIC50: −log10 of the molar value.

One assay is filed under the species Homo sapiens. The assay can be described thus: Selectivity index, ratio of IC50 for COMT (unknown origin) (test compound)/IC50 for FTO (unknown origin) (test compound) to IC50 for COMT (entacapone)/IC50 for FTO (entacapone).
Assay [1] addresses Alpha-ketoglutarate-dependent dioxygenase FTO (Homo sapiens, UniProt Q9C0B1). Description: Inhibition of FTO (unknown origin) assessed as reduction in demethylation by measuring N6-mA and A level incubated for 2 hrs by HPLC-MS/MS analysis.

Sequence of Alpha-ketoglutarate-dependent dioxygenase FTO (Q9C0B1 whole entry): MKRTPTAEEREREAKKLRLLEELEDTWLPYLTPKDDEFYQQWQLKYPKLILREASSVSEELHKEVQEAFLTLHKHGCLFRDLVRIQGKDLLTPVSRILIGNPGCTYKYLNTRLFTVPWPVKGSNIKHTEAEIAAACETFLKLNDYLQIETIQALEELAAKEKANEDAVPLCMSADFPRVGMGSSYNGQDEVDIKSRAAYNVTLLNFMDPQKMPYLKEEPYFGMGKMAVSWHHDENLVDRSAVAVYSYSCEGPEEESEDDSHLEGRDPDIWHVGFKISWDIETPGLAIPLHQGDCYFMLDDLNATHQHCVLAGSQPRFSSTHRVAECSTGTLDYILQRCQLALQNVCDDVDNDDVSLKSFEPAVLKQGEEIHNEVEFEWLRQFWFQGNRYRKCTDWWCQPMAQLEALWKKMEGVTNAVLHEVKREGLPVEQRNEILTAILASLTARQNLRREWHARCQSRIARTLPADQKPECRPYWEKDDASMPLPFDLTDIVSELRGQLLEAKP

Take `N#C/C(=C\c1cc(O)c(O)c([N+](=O)[O-])c1)C(=O)N1CCC1`: the Ratio IC50 in the assay filed under Homo sapiens was determined as 1.65.

For orientation: pIC50 means −log10 of the IC50, conventionally taken in molar units. Regarding `CCN(CC)C(=O)/C(C#N)=C/c1cc(O)c(O)c([N+](=O)[O-])c1` [ENTACAPONE], the pIC50 in assay [1] is 5.52.

For the origin of these results see ChEMBL document CHEMBL4418489, “FTO inhibitors” (2018).
